Results: PMC9250534, “Synthesis and direct assay of large macrocycle diversities by combinatorial late-stage modification at picomole scale” (Nature Communications, 2022)
Numbered stars: 1 amine (or outer) side, 2 acyl side, 3 side chain; on linkers, the order of the positions; unused ones are H or OH. Bridge positions count the residues as written; N and C are the ends. Square brackets hold non-standard residues; d marks the D form. Peptide text beside a SMILES is read from it. * marks the point of attachment. ξ: configuration not given here. Pro(4S-NHCO(5-Cl-2-thienyl)) = O=C(N[C@@H]1CN[C@H](C(=O)O)C1)c1ccc(Cl)s1; ξPro(4ξ-NHCOC6H4-4-Cl) = O=C(NC1CNC(C(=O)O)C1)c1ccc(Cl)cc1; 2Thenoyl(5-Cl) = O=C(c1ccc(Cl)s1)*; Benzoyl(4-Cl) = O=C(c1ccc(Cl)cc1)*; Cysteamide = C(CS[*:3])N[*:1]; X1 = O=C(/C=C/c1ccccc1)*; Api = NC1(C(=O)O)CCNCC1; Dap = NC[C@H](N)C(=O)O; Mpa = O=C(O)CCS

Target: MDM2 (Homo sapiens, UniProt Q00987)
Sequence (Q00987 whole entry): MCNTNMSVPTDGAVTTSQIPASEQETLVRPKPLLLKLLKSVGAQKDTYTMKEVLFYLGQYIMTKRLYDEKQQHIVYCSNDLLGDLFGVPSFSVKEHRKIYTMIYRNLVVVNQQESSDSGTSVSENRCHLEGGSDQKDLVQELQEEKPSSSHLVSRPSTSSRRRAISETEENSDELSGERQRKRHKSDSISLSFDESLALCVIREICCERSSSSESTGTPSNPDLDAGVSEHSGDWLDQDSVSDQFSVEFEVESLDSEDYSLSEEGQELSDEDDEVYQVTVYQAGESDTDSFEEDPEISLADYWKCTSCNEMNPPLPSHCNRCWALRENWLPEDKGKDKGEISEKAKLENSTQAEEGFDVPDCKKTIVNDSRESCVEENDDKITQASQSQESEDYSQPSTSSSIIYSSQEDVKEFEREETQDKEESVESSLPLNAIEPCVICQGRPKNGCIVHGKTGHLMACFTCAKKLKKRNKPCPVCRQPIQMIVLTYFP
Test: MDM2 binding screen: displacement of fluorescent p53 peptide probe FP53 (fluorescence polarization)
Details: crude macrocycle reactions; for fraction fluorescent probe displaced, Screen: initial screen
Procedure, shortened: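 Single-point screen: one fluorescence anisotropy reading at 25 °C (485 nm excitation, 535 nm emission) per macrocycle. Crude macrocycle reactions, final 10 µM, were scored for displacing the fluorescent p53 peptide from human MDM2.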

Structure (SMILES) | fraction fluorescent probe displaced, Screen (Acid 25) | fraction fluorescent probe displaced, Replicate (Acid 25) | fraction fluorescent probe displaced, Screen (Acid 91) | fraction fluorescent probe displaced, Replicate (Acid 91) | other results
O=C1CCSSCCNC(=O)[C@H](CNC(=O)c2ccc(Cl)cc2)NC(=O)c2cccc(c2)CNC(=O)[C@H](Cc2c[nH]c3ccccc23)N1 [X W B5 D3 Acid 25] | 0.41 | 0.22 |  |  | 
O=C(/C=C/c1ccccc1)NC[C@@H]1NC(=O)c2cccc(c2)CNC(=O)[C@H](Cc2c[nH]c3ccccc23)NC(=O)CCSSCCNC1=O [X W B5 D3 Acid 91] |  |  | 0.03 | 0.07 | 
O=C1CCSSCCNC(=O)C2CC(NC(=O)c3ccc(Cl)s3)CN2C(=O)c2cccc(c2)CNC(=O)C(Cc2c[nH]c3ccccc23)N1 (stereo not drawn) [X W B5 D5 Acid 14] |  |  |  |  | fraction fluorescent probe displaced, Screen (Acid 14): 0.14; fraction fluorescent probe displaced, Replicate (Acid 14): 0.10
O=C(C=Cc1ccccc1)NC1CC2C(=O)NCCSSCCC(=O)NC(Cc3c[nH]c4ccccc34)C(=O)NCc3cccc(c3)C(=O)N2C1 (stereo not drawn) [X W B5 D5 Acid 91] |  |  | 0.08 | 0.17 | 
O=C1CCSSCCNC(=O)C2(CCN(C(=O)c3ccc(Cl)s3)CC2)NC(=O)c2cccc(c2)CNC(=O)[C@H](Cc2c[nH]c3ccccc23)N1 [X W B5 D6 Acid 14] |  |  |  |  | fraction fluorescent probe displaced, Screen (Acid 14): 0.14; fraction fluorescent probe displaced, Replicate (Acid 14): 0.17
O=C1CCSSCCNC(=O)C2CN(C(=O)c3ccc(Cl)cc3)CCN2C(=O)c2cccc(c2)CNC(=O)C(Cc2c[nH]c3ccccc23)N1 (stereo not drawn) [X W B5 D7 Acid 25] | 0.0244 | 0.12 |  |  | 
O=C1CCSSCCNC(=O)C2CN(C(=O)C=Cc3ccccc3)CCN2C(=O)c2cccc(c2)CNC(=O)C(Cc2c[nH]c3ccccc23)N1 (stereo not drawn) [X W B5 D7 Acid 91] |  |  | 0.16 | 0.0168 | 
O=C1CCSSCCNC(=O)[C@@H]2CCCN2C(=O)[C@H](CNC(=O)c2ccc(Cl)s2)NC(=O)[C@H](Cc2c[nH]c3ccccc23)N1 [X W D3 B1 Acid 14] ([Mpa]W[Dap](2Thenoyl(5-Cl))P-Cysteamide; disulfide 1-C) |  |  |  |  | fraction fluorescent probe displaced, Screen (Acid 14): 0.28; fraction fluorescent probe displaced, Replicate (Acid 14): 0.28
O=C1CCSSCCNC(=O)[C@@H]2CCCN2C(=O)[C@H](CNC(=O)c2ccc(Cl)cc2)NC(=O)[C@H](Cc2c[nH]c3ccccc23)N1 [X W D3 B1 Acid 25] ([Mpa]W[Dap](Benzoyl(4-Cl))P-Cysteamide; disulfide 1-C) | 0.32 | 0.30 |  |  | 
O=C(/C=C/c1ccccc1)NC[C@@H]1NC(=O)[C@H](Cc2c[nH]c3ccccc23)NC(=O)CCSSCCNC(=O)[C@@H]2CCCN2C1=O [X W D3 B1 Acid 91] ([Mpa]W[Dap](X1)P-Cysteamide; disulfide 1-C) |  |  | 0.11 | -0.00827 | 
O=C(/C=C/c1ccccc1)NC[C@@H]1NC(=O)[C@H](Cc2c[nH]c3ccccc23)NC(=O)CCSSCCNC(=O)CCNC1=O [X W D3 B2 Acid 91] |  |  | 0.08 | 0.04 | 
O=C1CCSSCCNC(=O)[C@H]2CCCN(C2)C(=O)[C@H](CNC(=O)c2ccc(Cl)cc2)NC(=O)[C@H](Cc2c[nH]c3ccccc23)N1 [X W D3 B4 Acid 25] | 0.28 | 0.12 |  |  | 
O=C(/C=C/c1ccccc1)NC[C@@H]1NC(=O)[C@H](Cc2c[nH]c3ccccc23)NC(=O)CCSSCCNC(=O)[C@H]2CCCN(C2)C1=O [X W D3 B4 Acid 91] |  |  | 0.35 | 0.07 | 
O=C1CCSSCCNC(=O)c2cccc(c2)CNC(=O)[C@H](CNC(=O)c2ccc(Cl)s2)NC(=O)[C@H](Cc2c[nH]c3ccccc23)N1 [X W D3 B5 Acid 14] |  |  |  |  | fraction fluorescent probe displaced, Screen (Acid 14): 0.31; fraction fluorescent probe displaced, Replicate (Acid 14): 0.07
O=C1CCSSCCNC(=O)c2cccc(c2)CNC(=O)C(CNC(=O)c2ccc(Cl)cc2)NC(=O)C(Cc2c[nH]c3ccccc23)N1 (stereo not drawn) [X W D3 B5 Acid 25] | 0.12 | 0.17 |  |  | 
O=C(/C=C/c1ccccc1)NC[C@@H]1NC(=O)[C@H](Cc2c[nH]c3ccccc23)NC(=O)CCSSCCNC(=O)c2cccc(c2)CNC1=O [X W D3 B5 Acid 91] |  |  | 0.0563 | 0.17 | 
O=C1CCSSCCNC(=O)[C@@H]2CCCN2C(=O)[C@@H]2C[C@H](NC(=O)c3ccc(Cl)s3)CN2C(=O)[C@H](Cc2c[nH]c3ccccc23)N1 [X W D5 B1 Acid 14] ([Mpa]W[Pro(4S-NHCO(5-Cl-2-thienyl))]P-Cysteamide; disulfide 1-C) |  |  |  |  | fraction fluorescent probe displaced, Screen (Acid 14): 0.28; fraction fluorescent probe displaced, Replicate (Acid 14): 0.22
O=C1CCSSCCNC(=O)C2CCCN2C(=O)C2CC(NC(=O)c3ccc(Cl)cc3)CN2C(=O)C(Cc2c[nH]c3ccccc23)N1 (stereo not drawn) [X W D5 B1 Acid 25] ([Mpa]W[ξPro(4ξ-NHCOC6H4-4-Cl)]P-Cysteamide; disulfide 1-C; configuration not given here) | 0.22 | 0.28 |  |  | 
O=C(C=Cc1ccccc1)NC1CC2C(=O)N3CCCC3C(=O)NCCSSCCC(=O)NC(Cc3c[nH]c4ccccc34)C(=O)N2C1 (stereo not drawn) [X W D5 B1 Acid 91] |  |  | 0.08 | 0.07 | 
O=C1CCSSCCNC(=O)C2CCCN(C2)C(=O)C2CC(NC(=O)c3ccc(Cl)cc3)CN2C(=O)C(Cc2c[nH]c3ccccc23)N1 (stereo not drawn) [X W D5 B4 Acid 25] | 0.22 | 0.15 |  |  | 
O=C(C=Cc1ccccc1)NC1CC2C(=O)N3CCCC(C3)C(=O)NCCSSCCC(=O)NC(Cc3c[nH]c4ccccc34)C(=O)N2C1 (stereo not drawn) [X W D5 B4 Acid 91] |  |  | 0.16 | 0.09 | 
O=C1CCSSCCNC(=O)[C@@H]2CCCN2C(=O)C2(CCN(C(=O)c3ccc(Cl)s3)CC2)NC(=O)[C@H](Cc2c[nH]c3ccccc23)N1 [X W D6 B1 Acid 14] ([Mpa]W[Api](2Thenoyl(5-Cl))P-Cysteamide; disulfide 1-C) |  |  |  |  | fraction fluorescent probe displaced, Screen (Acid 14): 0.14; fraction fluorescent probe displaced, Replicate (Acid 14): 0.17
O=C1CCSSCCNC(=O)[C@@H]2CCCN2C(=O)C2(CCN(C(=O)c3ccc(Cl)cc3)CC2)NC(=O)[C@H](Cc2c[nH]c3ccccc23)N1 [X W D6 B1 Acid 25] ([Mpa]W[Api](Benzoyl(4-Cl))P-Cysteamide; disulfide 1-C) | 0.28 | 0.25 |  |  | 
O=C1CCSSCCNC(=O)C2CCCN(C2)C(=O)C2(CCN(C(=O)c3ccc(Cl)s3)CC2)NC(=O)C(Cc2c[nH]c3ccccc23)N1 (stereo not drawn) [X W D6 B4 Acid 14] |  |  |  |  | fraction fluorescent probe displaced, Screen (Acid 14): 0.11; fraction fluorescent probe displaced, Replicate (Acid 14): 0.38
O=C1CCSSCCNC(=O)c2cccc(c2)CNC(=O)C2(CCN(C(=O)c3ccc(Cl)s3)CC2)NC(=O)[C@H](Cc2c[nH]c3ccccc23)N1 [X W D6 B5 Acid 14] |  |  |  |  | fraction fluorescent probe displaced, Screen (Acid 14): 0.14; fraction fluorescent probe displaced, Replicate (Acid 14): 0.22
O=C1CCNC(=O)C2CN(C(=O)c3ccc(Cl)s3)CCN2C(=O)C(Cc2c[nH]c3ccccc23)NC(=O)CCSSCCN1 (stereo not drawn) [X W D7 B2 Acid 14] |  |  |  |  | fraction fluorescent probe displaced, Screen (Acid 14): 0.26; fraction fluorescent probe displaced, Replicate (Acid 14): 0.10

Continued, in another order:

fraction fluorescent probe displaced, Screen (Acid 25) | fraction fluorescent probe displaced, Replicate (Acid 25) | fraction fluorescent probe displaced, Screen (Acid 91) | fraction fluorescent probe displaced, Replicate (Acid 91) | Structure (SMILES) | other results
 |  | 0.14 | 0.0168 | O=C1CCSSCCNC(=O)[C@@H]2CCCN2C(=O)C2(CCN(C(=O)/C=C/c3ccccc3)CC2)NC(=O)[C@H](Cc2c[nH]c3ccccc23)N1 [X W D6 B1 Acid 91] ([Mpa]W[Api](X1)P-Cysteamide; disulfide 1-C) | 
0.0244 | 0.0465 |  |  | O=C1CCNC(=O)C2(CCN(C(=O)c3ccc(Cl)cc3)CC2)NC(=O)[C@H](Cc2c[nH]c3ccccc23)NC(=O)CCSSCCN1 [X W D6 B2 Acid 25] | 
 |  | 0.32 | 0.0168 | O=C1CCNC(=O)C2(CCN(C(=O)C=Cc3ccccc3)CC2)NC(=O)C(Cc2c[nH]c3ccccc23)NC(=O)CCSSCCN1 (stereo not drawn) [X W D6 B2 Acid 91] | 
0.28 | 0.20 |  |  | O=C1CCSSCCNC(=O)C2CCCN(C2)C(=O)C2(CCN(C(=O)c3ccc(Cl)cc3)CC2)NC(=O)C(Cc2c[nH]c3ccccc23)N1 (stereo not drawn) [X W D6 B4 Acid 25] | 
 |  | 0.11 | 0.09 | O=C1CCSSCCNC(=O)[C@H]2CCCN(C2)C(=O)C2(CCN(C(=O)/C=C/c3ccccc3)CC2)NC(=O)[C@H](Cc2c[nH]c3ccccc23)N1 [X W D6 B4 Acid 91] | 
0.15 | 0.12 |  |  | O=C1CCSSCCNC(=O)c2cccc(c2)CNC(=O)C2(CCN(C(=O)c3ccc(Cl)cc3)CC2)NC(=O)C(Cc2c[nH]c3ccccc23)N1 (stereo not drawn) [X W D6 B5 Acid 25] | 
 |  | 0.40 | 0.34 | O=C1CCSSCCNC(=O)c2cccc(c2)CNC(=O)C2(CCN(C(=O)/C=C/c3ccccc3)CC2)NC(=O)[C@H](Cc2c[nH]c3ccccc23)N1 [X W D6 B5 Acid 91] | 
0.19 | 0.07 |  |  | O=C1CCNC(=O)C2CN(C(=O)c3ccc(Cl)cc3)CCN2C(=O)C(Cc2c[nH]c3ccccc23)NC(=O)CCSSCCN1 (stereo not drawn) [X W D7 B2 Acid 25] | 
0.15 | 0.07 |  |  | O=C1CCSSCCNC(=O)C2CCCN(C2)C(=O)C2CN(C(=O)c3ccc(Cl)cc3)CCN2C(=O)C(Cc2c[nH]c3ccccc23)N1 (stereo not drawn) [X W D7 B4 Acid 25] | 
0.12 | 0.10 |  |  | O=C1CCSSCCNC(=O)c2cccc(c2)CNC(=O)C2CN(C(=O)c3ccc(Cl)cc3)CCN2C(=O)[C@H](Cc2c[nH]c3ccccc23)N1 (stereo partly drawn) [X W D7 B5 Acid 25] | 
